Assay results: patent US11673884B2, “Matrix metalloproteinase (MMP) inhibitors and methods of use thereof” (Foresee Pharmaceuticals Co., Ltd., priority 2019, dated 2023)
Like-named read-outs stand apart in the source and are kept apart here.

Columns and labels:
Assay type in all cases: biochemical
[1] = biological target: recombinant human MMP-13 (Homo sapiens (Human), UniProt P45452); assay: MMP selectivity assay, MMP-13; conditions: Table 2 selectivity profile; read-out: IC50, Target: MMP 13
Procedure: (§1) The inhibitory effect of compounds on the rate of cleaving fluorogenic MMP substrate (Enzo, BML-P128) by recombinant human MMP-12 catalytic domain (Enzo, BML-SE138) was carried out by methods known in the art. Briefly, to each well of a 96-well black opaque plate, all the reagents were sequentially added by pipetting, and the final reaction contained 4 nM of recombinant human MMP-12 catalytic domain, 4 μM of fluorogenic MMP substrate, and various concentrations (0.057 nM to 1,000 nM) of tested compound dilutions in HEPES buffer (pH 7.5) containing 10 mM of CaCl2, 0.01% Brij® 35 (polyoxyethylene (23) lauryl ether), and 0.1 mg/ml of BSA.
(§2) The enzyme and compounds were pre-incubated on a shaker to mix in wells. After an hour of mixing, fluorogenic substrate was added to each well. Reaction without enzyme was used as a blank control in the plate. The plate was then fed into a plate reader to measure fluorescence intensity at Excitation/Emission wavelengths of 340 nm/440 nm every 10 mins for at least 1 hour at 37° C. The IC50 of each compound in MMP-12 inhibition was determined by using a readout obtained at time point 30 minutes.
(§3) The MMP selectivity assay was performed by using other recombinant human MMPs, including MMP-1, MMP-2, MMP-3, MMP-7, MMP-8, MMP-9, MMP-10, MMP-12, MMP-13, and MMP-14. The IC50 of the compounds for the other recombinant human MMPs was determined as described above in Example 1, and are shown in Table 2. The IC50 values are reported as follows: A=less than 1 nM, B=1 nM to 10 nM, C=10 nM to 100 nM, D=greater than 100 nM.

[2] = biological target: recombinant human MMP-8 (Homo sapiens (Human), UniProt P22894); assay: MMP selectivity assay, MMP-8; conditions: Table 2 selectivity profile; read-out: IC50, Target: MMP 8
Procedure: as §1, §2, §3

[3] = biological target: recombinant human MMP-2 (Homo sapiens (Human), UniProt P08253); assay: MMP selectivity assay, MMP-2; conditions: Table 2 selectivity profile; read-out: IC50, Target: MMP 2
Procedure: as §1, §2, §3

[4] = biological target: recombinant human MMP-1 (Homo sapiens (Human), UniProt P03956); assay: MMP selectivity assay, MMP-1; conditions: Table 2 selectivity profile; read-out: IC50, Target: MMP 1
Procedure: as §1, §2, §3

[5] = biological target: recombinant human MMP-9 (Homo sapiens (Human), UniProt P14780); assay: MMP selectivity assay, MMP-9; conditions: Table 2 selectivity profile; read-out: IC50, Target: MMP 9
Procedure: as §1, §2, §3

[6] = biological target: recombinant human MMP-10 (Homo sapiens (Human), UniProt P09238); assay: MMP selectivity assay, MMP-10; conditions: Table 2 selectivity profile; read-out: IC50, Target: MMP 10
Procedure: as §1, §2, §3

[7] = biological target: recombinant human MMP-3 (Homo sapiens (Human), UniProt P08254); assay: MMP selectivity assay, MMP-3; conditions: Table 2 selectivity profile; read-out: IC50, Target: MMP 3
Procedure: as §1, §2, §3

[8] = biological target: recombinant human MMP-14 (Homo sapiens (Human), UniProt P50281); assay: MMP selectivity assay, MMP-14; conditions: Table 2 selectivity profile; read-out: IC50, Target: MMP 14
Procedure: as §1, §2, §3

[9] = biological target: recombinant human MMP-12 catalytic domain (Homo sapiens (Human), UniProt P39900); assay: MMP-12 inhibitory assay, fluorogenic substrate cleavage
Procedure: as §1, §2

[10] = biological target: recombinant human MMP-7 (Homo sapiens (Human), UniProt P09237); assay: MMP selectivity assay, MMP-7; conditions: Table 2 selectivity profile; read-out: IC50, Target: MMP 7
Procedure: as §1, §2, §3

[11] = Table 1, readout at time point 30 minutes, read-out: MMP-12 IC50
[12] = Table 2 selectivity profile, read-out: IC50, Target: MMP 12

recombinant human MMP-7, sequence (P09237 95-267): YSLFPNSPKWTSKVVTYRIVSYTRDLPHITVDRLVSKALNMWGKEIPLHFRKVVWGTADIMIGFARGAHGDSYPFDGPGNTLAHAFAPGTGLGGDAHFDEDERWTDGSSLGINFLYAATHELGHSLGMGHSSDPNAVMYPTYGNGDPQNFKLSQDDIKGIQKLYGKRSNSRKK
recombinant human MMP-2, sequence (P08253 110-660): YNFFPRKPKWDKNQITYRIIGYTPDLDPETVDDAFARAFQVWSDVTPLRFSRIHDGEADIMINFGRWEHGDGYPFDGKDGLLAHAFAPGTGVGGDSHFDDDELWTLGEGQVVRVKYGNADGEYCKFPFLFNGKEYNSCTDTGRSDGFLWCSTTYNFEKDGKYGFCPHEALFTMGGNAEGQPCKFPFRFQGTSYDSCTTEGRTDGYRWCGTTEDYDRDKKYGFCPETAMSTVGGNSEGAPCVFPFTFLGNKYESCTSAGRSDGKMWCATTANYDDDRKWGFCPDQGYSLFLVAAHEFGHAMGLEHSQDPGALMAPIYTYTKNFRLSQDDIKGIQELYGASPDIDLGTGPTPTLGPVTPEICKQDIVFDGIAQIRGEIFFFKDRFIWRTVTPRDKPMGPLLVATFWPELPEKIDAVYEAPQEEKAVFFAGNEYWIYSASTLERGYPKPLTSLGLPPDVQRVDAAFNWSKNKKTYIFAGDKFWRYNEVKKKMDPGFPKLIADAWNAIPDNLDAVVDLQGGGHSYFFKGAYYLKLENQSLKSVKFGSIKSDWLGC
recombinant human MMP-10, sequence (P09238 99-476): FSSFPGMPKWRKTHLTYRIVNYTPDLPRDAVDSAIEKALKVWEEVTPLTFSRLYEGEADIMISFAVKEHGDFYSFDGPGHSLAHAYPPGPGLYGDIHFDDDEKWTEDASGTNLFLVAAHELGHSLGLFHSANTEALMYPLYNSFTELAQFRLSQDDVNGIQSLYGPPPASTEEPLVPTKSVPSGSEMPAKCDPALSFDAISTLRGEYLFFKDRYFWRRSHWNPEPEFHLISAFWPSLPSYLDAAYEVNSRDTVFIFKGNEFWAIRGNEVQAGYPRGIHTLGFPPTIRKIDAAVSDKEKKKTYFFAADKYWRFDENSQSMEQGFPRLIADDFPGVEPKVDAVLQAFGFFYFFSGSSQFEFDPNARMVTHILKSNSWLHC
recombinant human MMP-1, sequence (P03956 100-469): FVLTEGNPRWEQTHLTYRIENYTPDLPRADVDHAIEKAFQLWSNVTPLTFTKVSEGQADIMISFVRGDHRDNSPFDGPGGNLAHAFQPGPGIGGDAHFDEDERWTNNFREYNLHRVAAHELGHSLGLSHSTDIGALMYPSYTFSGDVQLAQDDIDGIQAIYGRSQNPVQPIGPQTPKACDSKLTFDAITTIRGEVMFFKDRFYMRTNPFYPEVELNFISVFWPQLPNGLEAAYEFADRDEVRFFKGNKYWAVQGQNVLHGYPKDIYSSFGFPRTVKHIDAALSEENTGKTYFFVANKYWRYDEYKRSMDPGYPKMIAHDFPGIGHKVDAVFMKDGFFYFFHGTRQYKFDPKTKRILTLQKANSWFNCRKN
recombinant human MMP-3, sequence (P08254 100-477): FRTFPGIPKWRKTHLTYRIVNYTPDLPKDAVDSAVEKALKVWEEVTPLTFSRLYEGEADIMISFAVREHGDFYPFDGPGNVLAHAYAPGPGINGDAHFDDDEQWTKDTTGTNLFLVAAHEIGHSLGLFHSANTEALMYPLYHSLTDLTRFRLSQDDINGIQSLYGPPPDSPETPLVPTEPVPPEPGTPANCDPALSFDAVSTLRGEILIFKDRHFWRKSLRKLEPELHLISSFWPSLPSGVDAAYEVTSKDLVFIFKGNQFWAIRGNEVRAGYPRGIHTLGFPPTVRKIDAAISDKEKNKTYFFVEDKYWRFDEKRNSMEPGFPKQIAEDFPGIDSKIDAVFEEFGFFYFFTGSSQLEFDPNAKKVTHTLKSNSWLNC
recombinant human MMP-9, sequence (P14780 94-707): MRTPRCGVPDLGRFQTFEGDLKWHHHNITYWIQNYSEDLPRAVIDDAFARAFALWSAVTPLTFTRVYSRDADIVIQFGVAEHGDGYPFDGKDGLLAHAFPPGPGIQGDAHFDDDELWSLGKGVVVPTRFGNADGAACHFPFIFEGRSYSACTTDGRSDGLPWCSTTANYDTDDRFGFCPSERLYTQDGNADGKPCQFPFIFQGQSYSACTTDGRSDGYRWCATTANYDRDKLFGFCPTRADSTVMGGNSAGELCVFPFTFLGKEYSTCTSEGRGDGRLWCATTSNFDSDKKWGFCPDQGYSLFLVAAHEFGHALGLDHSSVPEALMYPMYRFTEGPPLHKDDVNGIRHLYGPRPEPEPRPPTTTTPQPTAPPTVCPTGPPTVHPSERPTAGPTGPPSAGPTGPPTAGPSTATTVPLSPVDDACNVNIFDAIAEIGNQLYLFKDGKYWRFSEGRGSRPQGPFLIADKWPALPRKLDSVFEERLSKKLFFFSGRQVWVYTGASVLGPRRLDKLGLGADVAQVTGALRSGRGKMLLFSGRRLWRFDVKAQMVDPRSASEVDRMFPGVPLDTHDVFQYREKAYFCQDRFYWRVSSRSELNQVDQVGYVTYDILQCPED
recombinant human MMP-8, sequence (P22894 101-467): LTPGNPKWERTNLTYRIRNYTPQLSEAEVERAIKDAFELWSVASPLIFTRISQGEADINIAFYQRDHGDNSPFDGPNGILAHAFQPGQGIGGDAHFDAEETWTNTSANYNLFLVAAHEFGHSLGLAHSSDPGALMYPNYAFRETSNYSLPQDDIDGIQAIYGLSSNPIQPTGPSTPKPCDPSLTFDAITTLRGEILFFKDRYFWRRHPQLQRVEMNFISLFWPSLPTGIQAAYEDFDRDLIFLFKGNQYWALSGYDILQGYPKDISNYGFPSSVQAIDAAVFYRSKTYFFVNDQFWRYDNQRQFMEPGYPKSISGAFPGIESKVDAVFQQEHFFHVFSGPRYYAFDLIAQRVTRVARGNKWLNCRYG
recombinant human MMP-12 catalytic domain, sequence (P39900 106-268): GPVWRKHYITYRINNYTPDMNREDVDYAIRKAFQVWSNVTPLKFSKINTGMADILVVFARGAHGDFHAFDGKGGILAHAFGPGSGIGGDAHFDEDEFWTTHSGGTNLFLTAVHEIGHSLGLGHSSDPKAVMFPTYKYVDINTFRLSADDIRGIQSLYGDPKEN

Structure (SMILES) | IC50 [1] | IC50 [2] | IC50 [3] | IC50 [4] | IC50 [5] | IC50 [6] | IC50 [7] | IC50 [8] | IC50 [9, 11] | IC50 [9, 12] | IC50 [10]
Cc1cc(/C=C/c2ccc(Sc3ccsc3C3NC(=O)NC3=O)cc2)ccn1 (centres unmarked) [AC-10] | 1 to 10 nM | 1 to 10 nM | 1 to 10 nM | > 100 nM | 10 to 100 nM | > 100 nM | 10 to 100 nM | > 100 nM | < 1 nM | < 1 nM | > 100 nM
Cc1cc(C#Cc2ccc(Sc3ccncc3C3NC(=O)NC3=O)cc2)ccn1 (centres unmarked) [AC-4] | > 100 nM | > 100 nM | > 100 nM | > 100 nM | > 100 nM | > 100 nM | > 100 nM | > 100 nM | 1 to 10 nM | 1 to 10 nM | > 100 nM
Cc1cc(C#Cc2ccc(Oc3ccncc3C3NC(=O)NC3=O)cc2)ccn1 (centres unmarked) [AC-7] | > 100 nM | > 100 nM | > 100 nM | > 100 nM | > 100 nM | > 100 nM | > 100 nM | > 100 nM | 1 to 10 nM | 1 to 10 nM | > 100 nM
Cc1cc(C#Cc2ccc(Sc3ccsc3C3NC(=O)NC3=O)cc2)ccn1 (centres unmarked) [AC-9] | > 100 nM | 10 to 100 nM | 10 to 100 nM | > 100 nM | > 100 nM | > 100 nM | > 100 nM | > 100 nM | < 1 nM | < 1 nM | > 100 nM
CCC1(c2cnccc2Sc2ccc(/C=C/c3ccnc(C)c3)cc2)NC(=O)NC1=O (centres unmarked) [AC-8] | – | – | – | – | – | – | – | – | < 1 nM | – | –
Cc1cc(/C=C/c2ccc(Oc3ccncc3C3NC(=O)NC3=O)cc2)ccn1 (centres unmarked) [AC-6] | > 100 nM | 10 to 100 nM | 10 to 100 nM | > 100 nM | > 100 nM | > 100 nM | > 100 nM | > 100 nM | < 1 nM | < 1 nM | > 100 nM
Cc1cc(/C=C/c2ccc(Sc3ccncc3C3NC(=O)NC3=O)cc2)ccn1 (centres unmarked) [AC-5] | > 100 nM | > 100 nM | 10 to 100 nM | > 100 nM | > 100 nM | > 100 nM | > 100 nM | > 100 nM | < 1 nM | < 1 nM | > 100 nM
CCC1(c2occc2Sc2ccc(/C=C/c3ccnc(C)c3)cc2)NC(=O)NC1=O (centres unmarked) [AC-3] | 10 to 100 nM | 1 to 10 nM | 1 to 10 nM | > 100 nM | 10 to 100 nM | 10 to 100 nM | 10 to 100 nM | > 100 nM | < 1 nM | < 1 nM | > 100 nM
Cc1cc(/C=C/c2ccc(Sc3ccoc3C3NC(=O)NC3=O)cc2)ccn1 (centres unmarked) [AC-2] | 10 to 100 nM | 10 to 100 nM | 1 to 10 nM | > 100 nM | 10 to 100 nM | > 100 nM | 10 to 100 nM | > 100 nM | < 1 nM | < 1 nM | > 100 nM
Cc1cc(C#Cc2ccc(Sc3ccoc3C3NC(=O)NC3=O)cc2)ccn1 (centres unmarked) [AC-1] | > 100 nM | > 100 nM | > 100 nM | > 100 nM | > 100 nM | > 100 nM | > 100 nM | > 100 nM | 10 to 100 nM | 10 to 100 nM | > 100 nM
Cc1cc(/C=C/c2ccc(Sc3cnn(C)c3C3NC(=O)NC3=O)cc2)ccn1 (centres unmarked) [AC-12] | 10 to 100 nM | 10 to 100 nM | 1 to 10 nM | > 100 nM | > 100 nM | > 100 nM | > 100 nM | > 100 nM | < 1 nM | < 1 nM | > 100 nM
Cc1cc(C#Cc2ccc(Sc3cnn(C)c3C3NC(=O)NC3=O)cc2)ccn1 (centres unmarked) [AC-11] | > 100 nM | 10 to 100 nM | 10 to 100 nM | > 100 nM | > 100 nM | > 100 nM | > 100 nM | > 100 nM | < 1 nM | < 1 nM | > 100 nM
